In patent US11993576B2, “N-benzyl-N-arylsulfonamide derivative and preparation and use thereof” (Hangzhou Yirui Pharmaceutical Technology Co., Ltd, priority 2019, dated 2024):
“Also recorded” adds a separate entry of the source.

How the values were obtained:
human Kv1.3 [1] = biological target: T1, human Kv1.3 (Homo sapiens, UniProt P22001); test: Conventional patch clamp assay of inhibitory activity against Kv1.3; type: cell-based; details: conventional patch-clamp method; CHO-K1 cells stably expressing human Kv1.3
T1 sequence (P22001 whole entry): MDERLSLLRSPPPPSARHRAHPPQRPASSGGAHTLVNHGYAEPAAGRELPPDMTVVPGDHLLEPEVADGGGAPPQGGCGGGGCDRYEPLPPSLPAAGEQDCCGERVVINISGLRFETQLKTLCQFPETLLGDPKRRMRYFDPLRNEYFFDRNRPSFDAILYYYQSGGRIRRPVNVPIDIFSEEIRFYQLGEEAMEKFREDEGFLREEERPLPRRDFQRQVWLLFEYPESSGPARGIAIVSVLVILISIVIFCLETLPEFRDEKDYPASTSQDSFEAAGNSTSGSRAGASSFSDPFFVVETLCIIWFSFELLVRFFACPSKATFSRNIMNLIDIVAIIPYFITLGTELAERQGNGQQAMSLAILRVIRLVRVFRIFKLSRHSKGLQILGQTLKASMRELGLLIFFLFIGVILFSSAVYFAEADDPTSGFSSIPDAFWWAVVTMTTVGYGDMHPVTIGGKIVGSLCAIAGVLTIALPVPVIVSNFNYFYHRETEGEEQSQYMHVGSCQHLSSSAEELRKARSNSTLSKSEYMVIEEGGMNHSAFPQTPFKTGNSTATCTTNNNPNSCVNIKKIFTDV
Excerpt: II. Conventional Patch Clamp Assay of Inhibitory Activity Against Kv1.3
In order to compare the influence of different assay methods on the inhibitory activity of a compound, the conventional patch clamp method was used to assay the inhibitory activities of compounds 21, 37, 44, 61 against Kv1.3. The principle and method for the conventional patch clamp method can be found in Grissmer et al. [Grissmer et al. Molecular Pharmacology 1994, 45:1227-1234].
(§1) Inhibitory activity of the compounds against Kv1.3 was assessed using a CHO-K1 recombinant cell line stably expressing human Kv1.3 (Charles River, California). The cells were cultured in an F-12K culture medium containing 5% calf serum (Invitrogen, Carlsbad.ca) in an incubator at 37° C. and under air humidity with 6% CO2.
(§2) During the experiment, adherent cells were placed in a recording chamber under an inverted microscope. All the experiments were performed at room temperature. Each of the cells used itself as the control.
(§3) The test compounds were formulated to their final concentrations on the day of assay, and then dissolved in an extracellular fluid. The extracellular fluid (mM) was: NaCl, 137; KCl, 4; CaCl2, 1.8; MgCl2, 1; HEPES, 10; glucose 10; pH 7.4 (NaOH titration). All the solutions of the test compounds and the control compounds contained 0.3% of DMSO.
(§4) Each of the compounds was perfused by a gravity-driven perfusion system. At least two cells were tested for each of the concentrations of a compound. After the current was stable, the blocking effect of the compounds was calculated by comparing the change in the current before and after administration of the compounds. 1000 μM 4-AP was used as a positive control.
(§5) The cells were transferred to a perfusion chamber, and were perfused with the extracellular fluid. Intracellular fluid (mM): K-aspartate, 130; MgCl2, 5; EGTA 5; HEPES, 10; pH 7.2 (KOH titration). The intracellular fluid was stored in a small amount in a refrigerator at −80° C. in batches, and was thawed on the day of the experiment. The electrodes were drawn by PC-10 (Narishige, Japan). A whole-cell patch-clamp recording was performed, with the noise being filtered by one-fifth of the sampling frequency.
(§6) The cells were clamped at −80 mV and then depolarized to 0 mV with square waves lasting for 2 seconds to obtain a Kv1.3 current. This process was repeated every 20 seconds. The maximum current elicited by the square waves was detected. After the maximum current became stable, the test compounds were perfused. After the reaction was stable, the blocking strength was calculated.
Data was collected and analyzed using pCLAMP 10 (Molecular Devices, Union City, CA). A stable current meant a current which varies within a limited range over time. […]

human Kv1.5 = human Kv1.5 (Homo sapiens, UniProt P22460); test: Conventional patch clamp assay of inhibitory activity against Kv1.5; type: cell-based; details: conventional patch-clamp method; CHO-K1 cells stably expressing human Kv1.5
Chain of human Kv1.5 (P22460 whole entry): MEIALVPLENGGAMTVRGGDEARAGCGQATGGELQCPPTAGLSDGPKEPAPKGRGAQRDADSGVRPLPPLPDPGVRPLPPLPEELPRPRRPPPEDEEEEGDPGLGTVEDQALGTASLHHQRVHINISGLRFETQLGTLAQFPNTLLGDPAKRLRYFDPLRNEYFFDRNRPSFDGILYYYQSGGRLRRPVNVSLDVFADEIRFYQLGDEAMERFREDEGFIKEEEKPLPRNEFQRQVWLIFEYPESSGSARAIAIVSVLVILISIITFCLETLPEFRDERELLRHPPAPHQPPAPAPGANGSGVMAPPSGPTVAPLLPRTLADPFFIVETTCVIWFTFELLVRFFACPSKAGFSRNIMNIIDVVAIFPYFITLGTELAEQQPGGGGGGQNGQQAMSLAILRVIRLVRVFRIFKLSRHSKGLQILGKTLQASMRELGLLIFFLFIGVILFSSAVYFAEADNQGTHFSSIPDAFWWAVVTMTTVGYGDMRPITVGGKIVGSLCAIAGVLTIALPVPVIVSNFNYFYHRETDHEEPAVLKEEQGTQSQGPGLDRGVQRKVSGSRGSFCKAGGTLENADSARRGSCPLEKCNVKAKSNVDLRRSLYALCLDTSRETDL
Protocol: III. Conventional Patch Clamp Assay of Inhibitory Activity Against Kv1.5
The principle and method for the conventional patch clamp method can be found in Grissmer et al. [Grissmer et al. Molecular Pharmacology 1994, 45:1227-1234].
as §1, with “a” for “the”, “Kv1.5” for “Kv1.3”, “Calif.).” for “California).”
as §2, §3
as §4, with “compounds.” for “compounds. 1000 μM 4-AP was used as a positive control.”
1000 μM 4-AP was used as a positive control.
as §5
as §6, with “to 20” for “to 0”, “a Kv1.5” for “a Kv1.3”
Data was collected and analyzed using pCLAMP 10 (Molecular Devices, Union City, CA). A stable current meant a current which varies within a limited range over time. The value of the stable current was used to calculate the effect of a compound at this […].

human Kv1.3 [2] = biological target: T1, human Kv1.3; test: IonWorks automated patch clamp assay of inhibitory activity against Kv1.3; type: cell-based; details: automated patch clamp method; CHO-K1 cells stably expressing human Kv1.3
Protocol: I. IonWorks Automated Patch Clamp Assay of Inhibitory Activity Against Kv1.3
The principle and method for Kv1.3 IonWorks assay can be found in Schroeder et al. [Schroeder et al. J Biomol Screen 2003, 8(1):50-64]
Inhibitory activity of the compounds against Kv1.3 was assessed using a CHO-K1 recombinant cell line stably expressing human Kv1.3 (Charles River, Calif.). The cells were cultured in an F-12K culture medium containing 5% calf serum (Invitrogen, Carlsbad. Calif.) in an incubator at 37° C. and under air humidity with 6% CO2. Prior to be fed in the IonWorks system, the adherent cells were treated with Versene at 37° C. for 6-7 min. After gently beating the culture flask, the cells were re-suspended in a PBS phosphate buffer, and then were centrifuged at 50×g for 4 min. After a short grinding, the cells were eventually re-suspended in an external recording solution at a density of approximately 1×10^6/mL.
The compounds were dissolved in DMSO to formulate a final assay concentration of 300× on the master plate. The final gradient assay concentrations were […], 0.096, 0.048, 0.24, 1.2, 6 and 30 μM. All 300× stock solutions of each compound in DMSO were transferred to a 384-well plate with 2 μl per well. The plates were sealed and stored at −80° C. until the day of assay.
On the day of assay, the plates were each thawed at room temperature. After centrifugation, 198 μl of the external recording solution (with the components of: 130 mM Na-Gluconate, 20 mM NaCl, 4 mM KCl, 1 mM MgCl2, 1.8 mM CaCl2, 5 mM Glucose and 10 mM HEPES, pH7.3) was added and mixed thoroughly. This step provided a 1:100 dilution for the compounds. After addition of cells to IonWorks, a further 1:3 dilution was carried out, resulting in a total dilution of 1:300. At least 8 wells were reserved as blank control on each of the plates, i.e., containing only 0.3% DMSO. In addition, at least 8 wells were reserved as positive control to detect the specificity to cell signals. Fluoxetine, a compound as the positive control, was assayed at its maximum blocking concentration (100 μm) and secondary maximum blocking concentration (10 μm). In addition, an internal recording solution used in the assay (with the components of: 100 mM K-gluconate, 40 mM KCl, 1 mM MgCl2, 1 mM EGTA and 10 mM HEPES, pH7.3) contained Amphotericin B at a final concentration of 200 μg/mL to gain current channels inside the cells. The osmotic pressure of the solution was adjusted with sucrose.
Experimental procedures were carried out following the protocols as set by IonWorks Quattro system (Molecular Devices, San Jose, CA). The current of human Kv1.3 was elicited to 0 millivolt (mV) for four times by a pulse lasting 1 second. A potential of −80 mV was maintained between pulses, for 5 seconds. First, a early voltage application program was started in the IonWorks Quattro system, and then the compounds were added and incubated for 600 seconds. Next, a late voltage application program was started until completion of all assays.
The maximum peak outward currents both before and after addition of the compounds as well as the average tail current elicited when the fourth pulse rose to 0 mV were measured. The inhibitory activity of the compounds against Kv1.3 can be calculated by dividing the measured current amplitude after addition of the compounds by the measured current amplitude before addition of the compounds.
All data was calibrated by a data filtration program of the IonWorks Quattro system. The filtration standard was that: seal quality >30 MΩ, decrease of seal resistance <50% and current amplitude >200 pA.

[3] = tested on: allergic contact dermatitis; details: applied topically, rat; cited from earlier work
[4] = tested on: SCID mouse psoriasis xenograft model; details: injection or topical skin application; cited from earlier work
[5] = tested on: rat model of psoriasis induced by imiquimod; test: Rat model of psoriasis induced by imiquimod; type: in vivo; details: Wista female rats; for pathological analysis of skin (HE×100): skin lesions of the back collected on day 11, FIG. 3
Protocol: V. Effects of Compound 24 on a Rat Model of Psoriasis Induced by Imiquimod
SPF Wista female rats with body weight of around 200 g were used.
Dexamethasone (DXMS) sodium phosphate injection, 5 mg/ml/injection (Shiyao Yinhu Pharmaceutical Co., Ltd.); 5% imiquimod cream, 0.25 g/pack (Sichuan MED-SHINE Pharmaceutical Co., Ltd.); 3×10^6 U recombinant human interferon α-2a injection, 1.0 ml/vial (Shenyang Sunshine Pharmaceutical Co., Ltd.); vehicle and negative control: acetone/DMSO 9:1 (Vehicle).
3.1 The animals were randomly divided into 6 groups based on body weight with 10 animals per group: normal control group, model control group, positive control group (dexamethasone sodium phosphate injection 5 mg/mL), 1% Compound 24 group, 0.3% Compound 24 group and 0.1% Compound 24 group.
3.2 Modelling and administration: after adaptive feeding for several days, for each of the rats, hair in central area of the back (2 cm×2 cm) was shaved, and then the surface short hair was shaved with mild depilatory cream, washed and dried. If hair on the back grew out again during the experiment, the hair was removed with a razor. Every morning, for the rats in model control group and administration groups, 5% imiquimod cream was evenly applied on the back at 20 mg/cm^2 (0.25 g/pack, for 3 rats), and after 10 min, recombinant human interferon α-2a injection was injected intraperitoneally at 10,000 U/500 g; for the normal control group, the rats were not treated, once a day, for 10 days. In the afternoon, for the rats in the administration groups, drugs were applied at a corresponding dose (drugs with corresponding concentrations were applied on the back at 100 μL/rat, twice, 50 μL each time) once a day for 10 days.
3.3 Psoriasis Area and Severity Index (PASI) score: according to PASI scoring standard, a score of 0-4 was given for erythema, scale and epidermal thickening of infiltration in the lesional skin of rats. The scoring criteria was as follows: 0, none; 1, mild; 2, moderate; 3, severe; 4, extremely severe. For the rats in each of the groups, the scores were averaged and changes in skin lesions of the rats were observed.
3.4 HE staining: after completion of modeling (on day 11), the tissues with skin lesions on the back of rats were collected, fixed with 4% neutral formaldehyde, embedded in paraffin, and sectioned. After HE staining, changes in skin histomorphology were observed under a microscope, and Baker scoring was performed. […]
3.5 Statistical Methods: all data was expressed as mean±standard deviation (x±s). […]

| Structure (SMILES) | IC50 (human Kv1.3 [1]) | IC50 (human Kv1.5) | IC50 (human Kv1.3 [2]) | other results |
| --- | --- | --- | --- | --- |
| CCCS(=O)(=O)N(Cc1ccccc1)c1ccc(N2CCN(C(=O)OCC)CC2=O)c(C#N)c1 [Compound 61, ethyl 4-(4-(N-benzylpropanesulfonamido)2-cyanophenyl)-3-oxopiperazin-1-formate] | 130 nM | 2110 nM | 92 nM | – |
| O=c1ccc2c(OCCCCOc3ccccc3)c3ccoc3cc2o1 [PAP-1] | – | – | – | allergic contact dermatitis [3]: can effectively inhibit allergic contact dermatitis; reduction of infiltrated CD3+ lymphocytes [4]: 85%; reduction of thickness of pathological epidermal hyperplasia [4]: approximately 50% |

The next lines start with results.

| IC50 (human Kv1.3 [1]) | IC50 (human Kv1.5) | IC50 (human Kv1.3 [2]) | Structure (SMILES) | other results |
| --- | --- | --- | --- | --- |
| 111 nM | 7900 nM | 96 nM | CCCS(=O)(=O)N(Cc1ccc(Cl)cc1)c1ccc(N2CCN(S(=O)(=O)N(C)C)CC2)c(C#N)c1 [Compound 44, 4-(4-(N-(4-chlorobenzyl)propanesulfonamido)-2-cyanophenyl)-N,N-dimethylpiperazin-1-sulfonamide] | – |
| 141 nM | 2820 nM | 97 nM | CCCS(=O)(=O)N(Cc1ccc(F)cc1)c1ccc(N2CCN(C(=O)N(C)C)CC2)c(C#N)c1 [Compound 21, 4-(2-cyano-4-(N-(4-fluorobenzyl)propyl)phenyl)-N,N-dimethylpiperazin-1-formamide] | – |
| – | – | 86 nM | CCCS(=O)(=O)N(Cc1ccc(Cl)cc1)c1ccc(N2CCN(C(=O)OCC)CC2)c(C#N)c1 [Compound 24] | PASI score ([5]; 1%, 0.3%, 0.1% applied on the back once a day for 10 days, FIG. 2A): had a significant effect on psoriasis in a dose-dependent manner; also recorded: exhibited a significant efficacy on psoriasis in a dose-dependent manner; Baker score ([5]; 1%, 0.3%, 0.1% applied on the back once a day for 10 days, HE staining day 11, FIG. 2B): had a significant effect on psoriasis in a dose-dependent manner; also recorded: exhibited a significant efficacy on psoriasis in a dose-dependent manner; pathological analysis of skin (HE×100) [5]: had a significant effect on psoriasis in a dose-dependent manner; pathological analysis of skin (HE×100) ([5]; listed as compound 24): the skin structure was intact, the granular layer was visible, the skin was partly lengthened and clubbed, no acanthosis was observed, and a small amount infiltration of inflammatory cells was observed in the dermis |
